Test results taken from the NIST ThermoML archive (doi:10.1021/je9006713).
“And” between values parts separate entries of the source, which are not always exact repeats. Equal values may be shown once.

Experiment: mn = molality of the nth substance listed, in mol/kg
Conditions: Liquid, glass piezometer

[I-].[NH4+] [ammonium iodide] + N
mass density
Conditions	m1 = 0.867	m1 = 1.827	m1 = 3.103	m1 = 4.856	m1 = 7.271	m1 = 11.18	m1 = 16.46
303.15 K, 10000 kPa	698.2 kg/m3	777.3 kg/m3	870.7 kg/m3	988.2 kg/m3	1109 kg/m3	1234 kg/m3	1329.5 kg/m3
303.15 K, 15000 kPa	702.3 kg/m3	780.7 kg/m3	874.3 kg/m3	992.3 kg/m3	1112.4 kg/m3	1236.7 kg/m3	1332.2 kg/m3
303.15 K, 20000 kPa	706.3 kg/m3	783.9 kg/m3	877.8 kg/m3	996.2 kg/m3	1115.2 kg/m3	1238.9 kg/m3	1334.5 kg/m3
303.15 K, 25000 kPa	710.1 kg/m3	787.4 kg/m3	881.1 kg/m3	999.8 kg/m3	1118 kg/m3	1241.2 kg/m3	1336.8 kg/m3
303.15 K, 30000 kPa	713.7 kg/m3	791 kg/m3	884.5 kg/m3	1003.5 kg/m3	1120.4 kg/m3	1243.5 kg/m3	–
313.15 K, 10000 kPa	683.7 kg/m3	762.9 kg/m3	857.4 kg/m3	974.7 kg/m3	1097.5 kg/m3	1222.9 kg/m3	1322 kg/m3
313.15 K, 15000 kPa	688 kg/m3	766.9 kg/m3	861.1 kg/m3	978.5 kg/m3	1100.9 kg/m3	1225.9 kg/m3	1323.9 kg/m3
313.15 K, 20000 kPa	691.9 kg/m3	770.7 kg/m3	864.6 kg/m3	982.3 kg/m3	1103.9 kg/m3	1228.8 kg/m3	1326.5 kg/m3
313.15 K, 25000 kPa	695.7 kg/m3	774.7 kg/m3	867.8 kg/m3	986.1 kg/m3	1107.3 kg/m3	1231.4 kg/m3	1329.2 kg/m3
313.15 K, 30000 kPa	699.6 kg/m3	778.6 kg/m3	871.3 kg/m3	989.9 kg/m3	1110.4 kg/m3	1233.7 kg/m3	1338.7 kg/m3 and 1331.4 kg/m3
323.15 K, 10000 kPa	668.4 kg/m3	748.7 kg/m3	844.3 kg/m3	960.5 kg/m3	1085.9 kg/m3	1212.3 kg/m3	1312 kg/m3
323.15 K, 15000 kPa	672.8 kg/m3	752.7 kg/m3	848.1 kg/m3	964.8 kg/m3	1089.2 kg/m3	1214.9 kg/m3	1314.6 kg/m3
323.15 K, 20000 kPa	677 kg/m3	756.8 kg/m3	852 kg/m3	969 kg/m3	1092.5 kg/m3	1217 kg/m3	1316.8 kg/m3
323.15 K, 25000 kPa	681.3 kg/m3	760.7 kg/m3	855.9 kg/m3	973.3 kg/m3	1095.5 kg/m3	1219.2 kg/m3	1319.4 kg/m3
323.15 K, 30000 kPa	685.5 kg/m3	764.7 kg/m3	859.8 kg/m3	977.3 kg/m3	1098.5 kg/m3	1221.4 kg/m3	1321.6 kg/m3
333.15 K, 10000 kPa	650.5 kg/m3	732.5 kg/m3	829.3 kg/m3	947.6 kg/m3	1075.9 kg/m3	1199.8 kg/m3	1302.5 kg/m3
333.15 K, 15000 kPa	655.7 kg/m3	737 kg/m3	833.5 kg/m3	951.7 kg/m3	1078.8 kg/m3	1202.6 kg/m3	1305 kg/m3
333.15 K, 20000 kPa	660.8 kg/m3	741.3 kg/m3	837.7 kg/m3	955.5 kg/m3	1081.7 kg/m3	1205.5 kg/m3	1307.6 kg/m3
333.15 K, 25000 kPa	666 kg/m3	745.9 kg/m3	841.8 kg/m3	959.4 kg/m3	1084.6 kg/m3	1208 kg/m3	1310.2 kg/m3
333.15 K, 30000 kPa	671.3 kg/m3	749.9 kg/m3	845.6 kg/m3	963.1 kg/m3	1087.3 kg/m3	1210.2 kg/m3	1312.4 kg/m3
